The values that follow come from PubChem BioAssay (NCI).

Each structure is given as a SMILES string.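 Method: 48-hour compound exposure of cells in 96-well plates, five concentrations, linear interpolation of endpoints. The concentration for full growth arrest is given as TGI.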 Where a SMILES comes first, the peptide text is derived from it. The star is where a group is joined. Cbz = O=C(OCc1ccccc1)*

Test systems include HS 578T breast; IGROV1 ovarian; UO-31 renal; LOX IMVI melanoma; NCI-H522 lung; SNB-75 CNS; MOLT-4 leukemia; HT29 colon; U251 CNS; HCT-116 colon.
Holding throughout (assay): NCI-60 cell line screen, 48 h

On to `COc1ccc(C(OCC2OC(n3cc(C)c(=O)[nH]c3=O)CC2n2cc(Cn3cc(Cl)c(=O)[nH]c3=O)nn2)(c2ccccc2)c2ccccc2)cc1` (configuration not stated), for which the TGI in the assay with HS 578T breast, in the assay with IGROV1 ovarian, in the assay on UO-31 renal, in the assay with LOX IMVI melanoma, in the assay on NCI-H522 lung and in the assay on SNB-75 CNS was greater than 100 µM each time. Further, the TGI in the assay on MOLT-4 leukemia, in the assay with HT29 colon, in the assay on U251 CNS and in the assay on HCT-116 colon was greater than 100 µM each time.
Turning to `O=C(O)CCC(NC(=O)OCc1ccccc1)C(=O)NC(Cc1cnc[nH]1)C(=O)O` (stereo not drawn) (Cbz-Glu-His-OH; configuration not given here), the TGI in the assay on HS 578T breast, in the assay with IGROV1 ovarian, with UO-31 renal, with LOX IMVI melanoma, in the assay on NCI-H522 lung and in the assay with SNB-75 CNS was greater than 100 µM in each case. Besides, the TGI in the assay on MOLT-4 leukemia, with HT29 colon, in the assay with U251 CNS and in the assay with HCT-116 colon was greater than 100 µM in each case.
With `CSc1nc(Nc2cccc(C(F)(F)F)c2)c2c(N)nn(C)c2n1`, the TGI in the assay on HS 578T breast, with IGROV1 ovarian, with UO-31 renal, with LOX IMVI melanoma, in the assay on NCI-H522 lung and in the assay with SNB-75 CNS was greater than 100 µM throughout. Further, the TGI in the assay with MOLT-4 leukemia, with HT29 colon, with U251 CNS and in the assay with HCT-116 colon was greater than 100 µM in each case.
Take `CN=C(N=Nc1c(O)[nH]c2ccccc12)SCC(=O)c1ccc(Br)cc1`: the TGI with HS 578T breast is greater than 40 µM; with IGROV1 ovarian, greater than 100 µM; in the assay on UO-31 renal it was 3.79 µM; in the assay with LOX IMVI melanoma, greater than 47.7 µM; in the assay on NCI-H522 lung, greater than 56.7 µM; in the assay on SNB-75 CNS, 27.5 µM. The TGI in the assay with MOLT-4 leukemia was greater than 100 µM; in the assay on HT29 colon it was greater than 43.5 µM; with U251 CNS, 16.6 µM; with HCT-116 colon it was 19.7 µM.
With `CCCCCCOC(=O)/C=C/[C@]1(CO)C/C(=C/CC(C(C)C)C(C)C)C(=O)O1`, the TGI in the assay on HS 578T breast amounted to 22.1 µM; with IGROV1 ovarian it was 28.9 µM; in the assay on UO-31 renal, 17.8 µM; in the assay with LOX IMVI melanoma, 24.6 µM; with NCI-H522 lung, 25.9 µM; in the assay on SNB-75 CNS, 27.7 µM. In addition, the TGI worked out at 25.6 µM in the assay with MOLT-4 leukemia, 20.8 µM with HT29 colon and 25.9 µM in the assay on HCT-116 colon.
Turning to `CC(CO)(CO)N1C(=O)C2C3C=CC(C3)C2C1=O` (configuration not stated), the TGI with HS 578T breast, in the assay with IGROV1 ovarian, in the assay with UO-31 renal, in the assay on LOX IMVI melanoma, in the assay on NCI-H522 lung and in the assay with SNB-75 CNS was greater than 100 µM throughout. Moreover, the TGI in the assay on MOLT-4 leukemia, in the assay with HT29 colon, with U251 CNS and in the assay on HCT-116 colon was greater than 100 µM each time.
Consider `Cc1nc2c(nc1C)-c1[nH]c3c(c1C(=O)C2=O)CCCC3=O`, for which the TGI in the assay on HS 578T breast is greater than 59.2 µM; with IGROV1 ovarian, 11.5 µM; in the assay with UO-31 renal, 10.3 µM; in the assay with LOX IMVI melanoma, 2.87 µM; in the assay with NCI-H522 lung, 4.42 µM; with SNB-75 CNS, 3.31 µM. Further, the figures for the TGI with MOLT-4 leukemia, in the assay with HT29 colon and in the assay on U251 CNS were 5.67 µM, 16.2 µM and 2.92 µM, respectively.
As for `S=C(S)NCNC(=S)S.[Zn+2]`, the TGI in the assay with HS 578T breast, in the assay on IGROV1 ovarian, with UO-31 renal, in the assay on LOX IMVI melanoma, in the assay on SNB-75 CNS and with MOLT-4 leukemia was greater than 100 µM throughout. Also, the TGI with HT29 colon, in the assay with U251 CNS and with HCT-116 colon was greater than 100 µM throughout.
In the case of `COC(=O)C1=C(C(=O)NNc2ccccc2)N(c2cccnc2Cl)C(c2ccccc2)=CC1c1ccccc1` (configuration not stated), the TGI in the assay on HS 578T breast is greater than 100 µM; with IGROV1 ovarian, greater than 100 µM; in the assay on LOX IMVI melanoma, greater than 100 µM; with NCI-H522 lung it was greater than 100 µM; with SNB-75 CNS, greater than 100 µM; in the assay with MOLT-4 leukemia it was 67.2 µM. In addition, the TGI in the assay on HT29 colon, with U251 CNS and in the assay with HCT-116 colon was greater than 100 µM in each case.
On to `COc1ccc2cc(/C=N/NC(=O)Nc3ccccc3)ccc2c1`, for which the TGI in the assay with HS 578T breast, in the assay with IGROV1 ovarian, in the assay with UO-31 renal, in the assay with LOX IMVI melanoma, with SNB-75 CNS and with MOLT-4 leukemia was greater than 100 µM throughout. In addition, the TGI with HT29 colon, in the assay with U251 CNS and in the assay with HCT-116 colon was greater than 100 µM throughout.
`CC#CCOC(=O)c1ccccc1OC(C)=O`: the TGI with HS 578T breast, with IGROV1 ovarian, in the assay on UO-31 renal, with LOX IMVI melanoma, in the assay with NCI-H522 lung and in the assay with SNB-75 CNS was greater than 100 µM each time. The TGI with MOLT-4 leukemia, in the assay with U251 CNS and in the assay on HCT-116 colon was greater than 100 µM each time.
In the case of `Nc1nc(N)c2c3c(cnc2n1)CC(c1ccccc1)CC3` (configuration not stated), the TGI was greater than 100 µM in the assay with HS 578T breast; 21.7 µM in the assay with IGROV1 ovarian; 21.6 µM with LOX IMVI melanoma; 35.9 µM in the assay with NCI-H522 lung; 35.9 µM in the assay with SNB-75 CNS; greater than 100 µM with MOLT-4 leukemia. For the same molecule, the TGI with HT29 colon is 66.2 µM; with U251 CNS, greater than 100 µM; with HCT-116 colon it was 32.5 µM.
For `CC(C)C(=O)OCC1OC(n2c(Br)nc3c(=O)[nH]c(N)nc32)C(OC(=O)C(C)C)C1OC(=O)C(C)C` (configuration not stated), the TGI in the assay with HS 578T breast was greater than 100 µM; with UO-31 renal it was greater than 100 µM; in the assay on LOX IMVI melanoma it was 55.5 µM; with NCI-H522 lung, greater than 100 µM; in the assay with SNB-75 CNS, greater than 100 µM; in the assay on MOLT-4 leukemia it was 48.2 µM. The TGI with HT29 colon is 40.3 µM; with HCT-116 colon it was greater than 100 µM.
Take `CCOC(=O)NC(Nc1ccc(S(=O)(=O)Nc2nc(C)cc(C)n2)cc1)(C(=O)OCC)C(F)(F)F` (configuration not stated): the TGI in the assay with HS 578T breast, with IGROV1 ovarian, in the assay on UO-31 renal, in the assay with LOX IMVI melanoma, in the assay on SNB-75 CNS and with MOLT-4 leukemia was greater than 100 µM throughout. The TGI with HT29 colon, in the assay with U251 CNS and in the assay with HCT-116 colon was greater than 100 µM in each case.
With `CCC(C)OC(=O)/C(Br)=C1/OC(=O)c2ccccc2-c2ccccc21` (configuration not stated), the TGI was greater than 100 µM in the assay with HS 578T breast; 73 µM with UO-31 renal; 68.2 µM in the assay with LOX IMVI melanoma; 44.3 µM with NCI-H522 lung; greater than 100 µM with SNB-75 CNS; 50.7 µM with MOLT-4 leukemia. The TGI in the assay on HT29 colon amounted to 84.5 µM; with HCT-116 colon, 36.6 µM.
Turning to `COC(=O)/C=C(\C)CC(O)/C=C(\C)CCC=C(C)C` (configuration not stated), the TGI with HS 578T breast is greater than 100 µM; in the assay on IGROV1 ovarian, greater than 100 µM; in the assay with UO-31 renal, greater than 100 µM; in the assay with LOX IMVI melanoma, greater than 100 µM; with SNB-75 CNS, 57.1 µM; in the assay with MOLT-4 leukemia, 55.3 µM. Further, the TGI with HT29 colon was 59.2 µM; in the assay on U251 CNS it was greater than 100 µM; with HCT-116 colon it was greater than 100 µM.
Consider `CC(=O)Oc1ccc2c(C)cc(=O)oc2c1OC(C)=O`, for which the TGI was 99.5 µM in the assay on HS 578T breast; 92.9 µM with IGROV1 ovarian; 76.9 µM in the assay on UO-31 renal; greater than 100 µM in the assay on LOX IMVI melanoma; greater than 100 µM in the assay with SNB-75 CNS; greater than 100 µM with MOLT-4 leukemia. Also, the TGI in the assay with HT29 colon, in the assay on U251 CNS and in the assay on HCT-116 colon was greater than 100 µM throughout.
In the case of `COC(=O)C1=C(O)C(C(=O)OC)[C@]2(O)[C@H](C(=O)OC)[C@H]1C[C@@H](c1ccc(C(F)(F)F)cc1)[C@H]2C(=O)OC` (some centres not stated), the TGI was greater than 100 µM in the assay with HS 578T breast; 29 µM with IGROV1 ovarian; 8.42 µM in the assay on UO-31 renal; 7.3 µM in the assay with LOX IMVI melanoma; 26.7 µM in the assay on SNB-75 CNS; greater than 100 µM in the assay on MOLT-4 leukemia. The TGI in the assay with HT29 colon was 25.1 µM; with U251 CNS, 14.9 µM; in the assay on HCT-116 colon it was 5.96 µM.
On to `O=C1/C(=C/c2ccccc2S)N=C(c2ccccc2)N1c1nc2c(Cl)cc(Cl)cc2s1`, for which the TGI with HS 578T breast came to 75.8 µM; in the assay with IGROV1 ovarian it was 67.2 µM; with UO-31 renal, 48.1 µM; in the assay on LOX IMVI melanoma it was 50.4 µM; in the assay on SNB-75 CNS, 64.8 µM; in the assay with MOLT-4 leukemia, 30.2 µM. Also, the TGI in the assay with HT29 colon is 40.1 µM; with U251 CNS, 54.2 µM; with HCT-116 colon, 36.5 µM.
Regarding `Cc1ccnc2[nH]c3ccccc3c(=O)c12`, the TGI is 48 µM in the assay with HS 578T breast; 49.5 µM in the assay on IGROV1 ovarian; greater than 100 µM with UO-31 renal; greater than 100 µM in the assay on LOX IMVI melanoma; 32.9 µM in the assay with NCI-H522 lung; 32.1 µM with SNB-75 CNS. The TGI with MOLT-4 leukemia is 55.1 µM; with HT29 colon it was 36 µM; in the assay with HCT-116 colon, greater than 100 µM.
For `Cc1cc2oc(=N)c(C#N)c(C)c2cc1C`, the TGI was greater than 100 µM with HS 578T breast; greater than 100 µM in the assay on IGROV1 ovarian; greater than 100 µM with UO-31 renal; greater than 100 µM in the assay on LOX IMVI melanoma; 79.8 µM in the assay on SNB-75 CNS; 33.2 µM with MOLT-4 leukemia. Besides, the TGI in the assay on HT29 colon, with U251 CNS and in the assay with HCT-116 colon was greater than 100 µM in each case.
